# Peptide text beside a SMILES is read from it. * marks the point of attachment. Acryloyl = C=CC(=O)*
# Experiments:
# Assay in all cases: BH3 profiling, mitochondrial depolarization (JC-1) in permeabilized cells
# Assay type in all cases: cell-based
# [1] = tested on: BCR-ABL-expressing B-lineage acute lymphoblastic leukemia cells dependent on Bfl-1; design: key to Bottom (best-fit value) / Top (best-fit value): % depolarization, normalized to DMSO (0) and FCCP (100) controls; settings: BH3 profiling fits Bfl-1, sigmoidal dose-response (variable slope)
# Description: (§1) Cell line identities were confirmed by STR profiling.
# (§2) Peptides were titrated by serial dilution in MEB buffer (150 mM Mannitol, 10 mM HEPES-KOH pH 7.5, 50 mM KCl, 0.02 mM EGTA, 0.02 mM EDTA, 0.1% BSA and 5 mM Succinate) containing 20 μg/mL oligomycin, 50 μg/mL digitonin, 2 μM JC-1 and 10 mM 2-mercaptoethanol in 384-well plates. Controls for no depolarization (1% DMSO) and complete depolarization with the mitochondrial oxidative phosphorylation uncoupler FCCP (20 μM) were included for data normalization. […] 15 μL of cell suspension was added to each well containing 15 μL of treatment solution. […] To produce percent depolarization, the area under the resultant curve was calculated and normalized to the assay controls. Peptide titration curves were fit to sigmoidal dose-response curves using Graphpad PRISM seven to obtain EC50 values.
# [2] = tested on: BCR-ABL-expressing B-lineage acute lymphoblastic leukemia cells dependent on Mcl-1; settings: BH3 profiling fits Mcl-1, sigmoidal dose-response (variable slope)
# Description: as §1, §2
# [3] = tested on: BCR-ABL-expressing B-lineage acute lymphoblastic leukemia cells dependent on Bcl-xL; settings: BH3 profiling fits Bcl-xL, sigmoidal dose-response (variable slope), fit ambiguous
# Description: as §1, §2
smiles,measurement,setting,value
C=CC(=O)N[C@@H](Cc1c[nH]c2ccccc12)C(=O)N[C@H](C(=O)N[C@@H](CCCNC(=N)N)C(=O)N[C@@H](CCC(=O)O)C(=O)N[C@H](C(=O)N[C@@H](C)C(=O)N[C@@H](C)C(=O)NCC(=O)N[C@@H](CC(C)C)C(=O)N[C@@H](CCCNC(=N)N)C(=O)N[C@@H](CCCNC(=N)N)C(=O)N[C@@H](C)C(=O)N[C@@H](C)C(=O)N[C@@H](CC(=O)O)C(=O)N[C@@H](CC(=O)O)C(=O)N[C@H](C(=O)N[C@@H](CC(N)=O)C(=O)N[C@@H](C)C(=O)N[C@@H](CCC(N)=O)C(=O)N[C@H](C(=O)N[C@@H](CCC(=O)O)C(=O)N[C@@H](CCCNC(=N)N)C(N)=O)C(C)C)C(C)C)[C@@H](C)CC)C(C)C [FS2gX] (Acryloyl-WVREIAAGLRRAADDVNAQVER-NH2),HillSlope (best-fit value),[1],0.7987
same,Bottom (best-fit value),[1]; constraint Bottom < 5,-3.828
same,Top (best-fit value),[1]; constraint Top > 78,78.27
same,LogEC50 (best-fit value),"[1]; x = Log [Peptide] M, 55-56 Y values analyzed",-8.01
same,HillSlope (best-fit value),[2],0.1762
same,Bottom (best-fit value),[2]; constrained (0 < Bottom < 5 or Bottom < 5),-6.58
same,Top (best-fit value),[2]; constrained (Top < 100 or Top > 78),~ 78
same,Bottom (best-fit value),[3]; constraint Bottom < 5,~ -1647
same,Top (best-fit value),[3]; constraint Top > 78,~ 78
same,HillSlope (best-fit value),[3],~ -0.02698
